Experimental data published in patent US12297190B2, “Modulators of STING (stimulator of interferon genes)” (PFIZER INC., priority 2019, dated 2025).
pEC50, pKi: −log10 of the molar value. Structures can show the parent of a compound that is named as a salt.

What was measured:
R232-STING = R232-STING (Homo sapiens, UniProt Q86WV6, H232R); assay: biochemical
STING [1] = target: T1, STING (Homo sapiens, UniProt Q86WV6, G230A/H232R/R293Q/R71H); assay: Phosphorylation of IRF3: THP-1 cell ELISA; assay type: cell-based; settings: THP-1 cells, 3 hours incubation, phospho-IRF3 ELISA; read-out: THP-1 CELL P-IRF3 EC50
T1 construct: host or cells: THP-1 and THP-1 Lucia ISG cells
Description: Phosphorylation of IRF3: THP-1 Cell ELISA
STING activation results in recruitment of TBK1 and phosphorylation of IRF3 transcription factor before induction of type I interferons. THP-1 cells (InvivoGen) were grown in RPMI media plus 2 mM L-glutamine, 10% fetal bovine serum, and 0.5% Pen-Strep. 10^4 cells were seeded in 96-well plates and incubated overnight 37° C., 5% CO2. Compounds serial diluted compounds in media (final 0.5% DMSO) were added to the cells and incubated for an additional 3 hours. After incubation, the plates were centrifuged at 2000 rpm for 5 min. The cells were then lysed in 100 μl RIPA buffer and vortexed for 30 minutes at room temperature. 25 μl of lysate was then transferred to clear polystyrene High Bind plates that had been previously coated with mouse anti-human IRF-3 capture antibody (BD Pharmigen), and allowed to incubate at 4° C. for 16 hours. The plates were then washed and incubated with rabbit anti-phospho-IRF3 detection antibody (Cell Signaling Technologies) for 1.5 hours at room temperature. Finally, an HRP-linked secondary antibody (Cell Signaling Technologies) was added for 30 min before the Glo Substrate Reagent (R&D Systems) was used generate the luminescent signal. The signal was measured using a Perkin-Elmer Envision microplate reader. Data were normalized to “% effect” with a positive control STING agonist that was known to maximize the phosphorylated IRF3 signal and the negative control was DMSO.

STING [2] = target: T1, STING; assay: Interferon-β induction: THP-1 Lucia ISG reporter cell line; assay type: cell-based; settings: THP-1 Lucia ISG cells, 24 hours incubation, luciferase reporter; read-out: THP-1 Lucia ISG Cells IFN-β EC50
Description: Interferon-β Induction: THP-1 ISG Reporter Cell Line
THP-1 Lucia™ ISG cells (InvivoGen) express the secreted luciferase “Lucia” reporter gene under the control of an IRF-inducible composite promotor comprised of five interferon response elements. THP-1 Lucia™ ISG cells were grown in RPMI media plus 2 mM L-glutamine, 10% fetal bovine serum, and 0.5% Pen-Strep. Hygromycin B and Zeocin were present to maintain stable transfection. 10^4 cells were seeded in 96-well plates and incubated overnight 37° C., 5% CO2. 50 μL of serial diluted compounds in media (final 0.5% DMSO) was and incubated for an additional 24 hours. After incubation, the plates were centrifuged at 2000 rpm for 10 min. 50 μl of cell culture supernatant of each well was transferred to a white, opaque 96-well plate. One pouch of QUANTI-Luc™ (InvivoGen) powder was prepared in 25 mL of endotoxin-free water and 100 μL of prepared warm QUANTI-Luc solution were added to each well containing the supernatant. The luminescence signal was measured using a Perkin-Elmer Envision microplate reader. Data were normalized to “% effect” with a positive control STING agonist that was known to maximize the luciferase signal and the negative control DMSO.

Chain of R232-STING (Q86WV6 155-341 H232R): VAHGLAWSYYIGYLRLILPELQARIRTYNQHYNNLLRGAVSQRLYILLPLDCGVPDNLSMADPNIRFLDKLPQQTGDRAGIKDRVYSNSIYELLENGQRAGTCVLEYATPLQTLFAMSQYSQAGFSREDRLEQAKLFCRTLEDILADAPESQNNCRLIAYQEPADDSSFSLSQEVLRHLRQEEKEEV
T1 sequence (Q86WV6 whole entry R71H/G230A/H232R/R293Q): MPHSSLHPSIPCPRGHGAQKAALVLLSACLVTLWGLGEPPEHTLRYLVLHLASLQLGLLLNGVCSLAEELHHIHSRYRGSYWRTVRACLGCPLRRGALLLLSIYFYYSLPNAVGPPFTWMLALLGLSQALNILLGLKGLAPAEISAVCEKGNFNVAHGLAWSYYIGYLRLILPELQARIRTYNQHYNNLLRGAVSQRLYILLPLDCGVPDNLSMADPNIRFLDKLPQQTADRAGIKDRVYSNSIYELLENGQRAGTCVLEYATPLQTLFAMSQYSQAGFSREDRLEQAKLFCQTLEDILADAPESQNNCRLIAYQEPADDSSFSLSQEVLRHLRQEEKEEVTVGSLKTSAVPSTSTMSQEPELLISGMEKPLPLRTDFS

Structure (SMILES) | pKi (R232-STING) | pEC50 (STING [1]) | pEC50 (STING [2])
CCn1nc(C)c(F)c1-c1nc(-c2nc(C(N)=O)cc3c2cnn3CC(CO)CO)n(C)n1 [Example Y01, 4-[3-(1-ethyl-4-fluoro-3-methyl-1H-pyrazol-5-yl)-1-methyl-1H-1,2,4-triazol-5-yl]-1-[3-hydroxy-2-(hydroxymethyl)propyl]-1H-pyrazolo[4,3-c]pyridine-6-carboxamide] | 7.57 | 5.15 | 5.13
CCn1nc(C)c(F)c1-c1nc(-c2cc(C(N)=O)cn3c(C)ncc23)n[nH]1 [Example F01, 8-[5-(1-ethyl-4-fluoro-3-methyl-1H-pyrazol-5-yl)-1H-1,2,4-triazol-3-yl]-3-methylimidazo[1,5-a]pyridine-6-carboxamide] | 7.03 | 6.11 | 6.17
CCn1nc(C)c(O)c1-c1nc(-c2nc(C(N)=O)cc3c2cnn3C)c(CN)s1 [Example X01, (4-(6-carbamoyl-1-methyl-1H-pyrazolo[4,3-c]pyridin-4-yl)-2-(1-ethyl-4-hydroxy-3-methyl-1H-pyrazol-5-yl)thiazol-5-yl)methanaminium formate] | 9.22 | 6.47 | 6.42
CCn1nc(C)cc1-c1nc(-c2nc(C(N)=O)cc3c2cnn3C)n(CCCN)n1 [YY31, 4-[1-(3-aminopropyl)-3-(1-ethyl-3-methyl-1H-pyrazol-5-yl)-1H-1,2,4-triazol-5-yl]-1-methyl-1H-pyrazolo[4,3-c]pyridine-6-carboxamide] | 6.80 | < 5.00 | < 4.88
CCn1nc(C)cc1-c1nnc(-c2cc(C(N)=O)cc3c2cnn3C2CC3CNCC3C2)[nH]1 (stereo not drawn) [YY13, 4-[5-(1-ethyl-3-methyl-1H-pyrazol-5-yl)-4H-1,2,4-triazol-3-yl]-1-(octahydrocyclopenta[c]pyrrol-5-yl)-1H-indazole-6-carboxamide] | 6.37 | < 4.00 | < 4.00
CCn1nc(CO)cc1-c1n[nH]c(-c2nc(C(N)=O)cc3c2cnn3C)n1 [YY30, 4-{3-[1-ethyl-3-(hydroxymethyl)-1H-pyrazol-5-yl]-1H-1,2,4-triazol-5-yl}-1-methyl-1H-pyrazolo[4,3-c]pyridine-6-carboxamide] | 7.38 | < 4.88 | < 4.48
CCn1nc(C)c(O)c1-c1nc(-c2nc(C(N)=O)cc3c2cnn3C)n(C)n1 [Example Q01, 4-[3-(1-ethyl-4-hydroxy-3-methyl-1H-pyrazol-5-yl)-1-methyl-1H-1,2,4-triazol-5-yl]-1-methyl-1H-pyrazolo[4,3-c]pyridine-6-carboxamide] | 8.49 | 6.92 | 6.85
CCn1ncc(O)c1-c1nc(-c2nc(C(N)=O)cc3c2cnn3C)c(CN)o1 [Example U02] | 7.29 | 5.19 | 5.21
CCn1nc(C)cc1-c1nc(-c2nc(C(N)=O)cc3c2cnn3C)n(C)n1 [Example J01, 4-[3-(1-ethyl-3-methyl-1H-pyrazol-5-yl)-1-methyl-1H-1,2,4-triazol-5-yl]-1-methyl-1H-pyrazolo[4,3-c]pyridine-6-carboxamide] | 7.85 | 6.28 | 6.29

Other lines, results leading:

pKi (R232-STING) | pEC50 (STING [1]) | pEC50 (STING [2]) | Structure (SMILES)
6.31 | < 4.48 | < 4.48 | CCn1nc(C)cc1-c1n[nH]c(-c2cc(C(N)=O)cc3c2cnn3CCN2CCOC(C)C2)n1 (stereo not drawn) [YY22, 4-[3-(1-ethyl-3-methyl-1H-pyrazol-5-yl)-1H-1,2,4-triazol-5-yl]-1-[2-(2-methylmorpholin-4-yl)ethyl]-1H-indazole-6-carboxamide]
6.48 | < 4.00 | < 4.00 | CCn1nc(C)cc1-c1nnc(-c2cc(C(N)=O)cc3c2cnn3CCCCC2CCNCC2)[nH]1 [YY15, 4-[5-(1-ethyl-3-methyl-1H-pyrazol-5-yl)-4H-1,2,4-triazol-3-yl]-1-[4-(piperidin-4-yl)butyl]-1H-indazole-6-carboxamide]
7.06 | 4.96 | 5.14 | CCn1nc(C)cc1-c1csc(-c2cc(C(N)=O)cc3c2cnn3C)n1 [Example H01, 4-[4-(1-ethyl-3-methyl-1H-pyrazol-5-yl)-1,3-thiazol-2-yl]-1-methyl-1H-indazole-6-carboxamide]
6.64 | 4.69 | 4.70 | CCn1nc(C)cc1-c1n[nH]c(-c2cc(C(N)=O)cc3c2cnn3CCN(C)CC(F)(F)F)n1 [Example D05, 4-[3-(1-ethyl-3-methyl-1H-pyrazol-5-yl)-1H-1,2,4-triazol-5-yl]-1-{2-[methyl(2,2,2-trifluoroethyl)amino]ethyl}-1H-indazole-6-carboxamide formic acid salt]
7.60 | 6.04 | 5.99 | CCn1nc(C)cc1-c1n[nH]c(-c2cc(C(N)=O)cc3c2cnn3C)n1 [Example A01, 4-[3-(1-ethyl-3-methyl-1H-pyrazol-5-yl)-1H-1,2,4-triazol-5-yl]-1-methyl-1H-indazole-6-carboxamide]
6.43 | < 4.00 | < 4.00 | CCn1nc(C)cc1-c1nnc(-c2cc(C(N)=O)cc3c2cnn3Cc2nc3c(o2)CNC3)[nH]1 [YY16, 1-[(5,6-dihydro-4H-pyrrolo[3,4-d][1,3]oxazol-2-yl)methyl]-4-[5-(1-ethyl-3-methyl-1H-pyrazol-5-yl)-4H-1,2,4-triazol-3-yl]-1H-indazole-6-carboxamide]
6.51 | 4.55 | 4.54 | CCn1nc(C)cc1-c1n[nH]c(-c2cc(C(N)=O)cc3c2cnn3CCN2C[C@H](C)OC[C@@H]2C)n1 [Example M04]
6.36 | < 4.00 | < 4.00 | CCn1nc(C)cc1-c1nnc(-c2cc(C(N)=O)cc3c2cnn3CC[C@H](C)C2CCNCC2)[nH]1 (racemic) [YY18, 4-[5-(1-ethyl-3-methyl-1H-pyrazol-5-yl)-4H-1,2,4-triazol-3-yl]-1-[(3S)-3-(piperidin-4-yl)butyl]-1H-indazole-6-carboxamide]
6.85 | < 4.00 | < 4.00 | CCn1nc(C)cc1-c1nnc(-c2cc(C(N)=O)cc3c2cnn3CCN2CCC(C#N)CC2)[nH]1 [YY09, 1-[2-(4-cyanopiperidin-1-yl)ethyl]-4-[5-(1-ethyl-3-methyl-1H-pyrazol-5-yl)-4H-1,2,4-triazol-3-yl]-1H-indazole-6-carboxamide]
7.88 | 6.60 | 6.62 | CCn1nc(C)c(Cl)c1-c1nc(-c2cc(C(N)=O)cc3c2cnn3C)n[nH]1 [Example C04, 4-[5-(4-chloro-1-ethyl-3-methyl-1H-pyrazol-5-yl)-1H-1,2,4-triazol-3-yl]-1-methyl-1H-indazole-6-carboxamide]
6.67 | < 4.48 | < 4.48 | CCn1nc(C)cc1-c1n[nH]c(-c2cc(C(N)=O)cc3c2cnn3CCN2CC3CCC2CO3)n1 (stereo not drawn) [YY25, 4-[3-(1-ethyl-3-methyl-1H-pyrazol-5-yl)-1H-1,2,4-triazol-5-yl]-1-[2-(2-oxa-5-azabicyclo[2.2.2]octan-5-yl)ethyl]-1H-indazole-6-carboxamide]
< 6.19 | < 4.00 | < 4.00 | CCn1nc(C)cc1-c1nnc(-c2cc(C(N)=O)cc3c2cnn3CCN(C)C)[nH]1 [YY04, 1-[2-(dimethylamino)ethyl]-4-[5-(1-ethyl-3-methyl-1H-pyrazol-5-yl)-4H-1,2,4-triazol-3-yl]-1H-indazole-6-carboxamide]
